# From US6620811B2, “Isonicotin- and nicotinamide derivatives of benzothiazoles” (Hoffmann-La Roche Inc., priority 2001, dated 2003)
# Experiments:
# [1] = target: T1, human adenosine A2A receptor (Homo sapiens, UniProt P29274); test: Human adenosine A2A receptor [3H]-SCH-583261 binding assay (SPA, CHO cell membranes); conditions: [3H]-SCH-583261 1 nM; membranes of CHO cells expressing the recombinant receptor; Ki by Cheng-Prussoff equation; read-out: hA2 (pKi) (converted)
# T1 construct: expressed in transfected cells; host or cells: CHO cells, semliki forest virus expression system; membrane preparation
# Description: Human Adenosine A2A Receptor
# The human adenosine A2A receptor was recombinantly expressed in chinese hamster ovary (CHO) cells using the semliki forest virus expression system. Cells were harvested, washed twice by centrifugation, homogenised and again washed by centrifugation. The final washed membrane pellet was suspended in a Tris (50 mM) buffer containing 120 mM NaCl, 5 mM KCl, 2 mM CaCl2 and 10 mM MgCl2 (pH 7.4) (buffer A). The [^3H]-SCH-583261 (Dionisotti et al., 1997, Br J Pharmacol 121, 353; 1 nM) binding assay was carried out in 96-well plates in the presence of 2.5 μg of membrane protein, 0.5 mg of Ysi-poly-1-lysine SPA beads and 0.1 U adenosine deaminiase in a final volume of 200 μl of buffer A. Non-specific binding was defined using xainthine amine congener (XAC; 2 μM). Compounds were tested at 10 concentrations from 10 μM-0.3 nM. All assays were conducted in duplicate and repeated at least two times. Assay plates were incubated for 1 hour at room temperature before centrifugation and then bound ligand determined using a Packard Topcount scintillation counter. IC50 values were calculated using a non-linear curve fitting program and Ki values calculated using the Cheng-Prussoff equation.
# T1 sequence (P29274 whole entry): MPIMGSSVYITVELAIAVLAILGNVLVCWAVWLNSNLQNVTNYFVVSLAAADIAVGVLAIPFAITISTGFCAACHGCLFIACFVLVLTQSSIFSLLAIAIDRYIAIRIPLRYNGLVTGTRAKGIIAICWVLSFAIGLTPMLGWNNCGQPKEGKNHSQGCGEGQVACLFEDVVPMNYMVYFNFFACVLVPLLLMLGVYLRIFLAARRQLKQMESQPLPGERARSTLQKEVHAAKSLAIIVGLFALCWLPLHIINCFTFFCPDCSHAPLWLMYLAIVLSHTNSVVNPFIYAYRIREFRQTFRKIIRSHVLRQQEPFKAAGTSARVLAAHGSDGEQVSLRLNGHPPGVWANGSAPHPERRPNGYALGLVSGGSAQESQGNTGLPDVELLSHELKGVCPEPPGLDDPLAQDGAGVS
Structure (SMILES),Ki [1],melting point
"CCOCCN(C)Cc1cc(C(=O)Nc2nc3c(OC)ccc(N4CCOCC4)c3s2)ccn1 [Example 104, 2-{[(2-Ethoxy-ethyl)-methyl-amino]-methyl}-N-(4-methoxy-7-morpholin-4-yl-benzothiazol-2-yl)-isonicotinamide]",3.16 nM,159 to 160 °C
"COC[C@@H]1CCCN1Cc1cc(C(=O)Nc2nc3c(OC)ccc(N4CCOCC4)c3s2)ccn1 [Example 105, (S)-2-(2-Methoxymethyl-pyrrolidin-1-ylmethyl)-N-(4-methoxy-7-morpholin-4-yl-benzothiazol-2-yl)-isonicotinamide]",–,110 to 113 °C
"CCSCc1cc(C(=O)Nc2nc3c(OC)ccc(N4CCOCC4)c3s2)ccn1 [Example 103, 2-Ethylsulfanylmethyl-N-(4-methoxy-7-morpholin-4-yl-benzothiazol-2-yl)-isonicotinamide]",1.58 nM,158 to 159 °C
"COc1ccc(N2CCOCC2)c2sc(NC(=O)c3ccnc(Cn4ccnc4C)c3)nc12 [Example 107, N-(4-Methoxy-7-morpholin-4-yl-benzothiazol-2-yl)-2-(2-methyl-imidazol-1-ylmethyl)-isonicotinamide]",–,264 to 265 °C

# Now from value to compound:
Ki [1],melting point,Structure (SMILES)
2 nM,125 °C,"COc1ccc(N2CCOCC2)c2sc(NC(=O)c3ccnc(CN4CCC(O)CC4)c3)nc12 [Example 102, 2-(4-Hydroxy-piperidin-1-yl-methyl)-N-(4-methoxy-7-morpholin-4-yl-benzothiazol-2-yl)-isonicotinamide]"
–,228 to 230 °C,"COc1ccc(N2CCOCC2)c2sc(NC(=O)c3ccnc(CN(C)C(C)=O)c3)nc12 [Example 108, 2-[(Acetyl-methyl-amino)-methyl]-N-(4-methoxy-7-morpholin-4-yl-benzothiazol-2-yl)-isonicotinamide]"
